Assay type: physicochemical
Description: A time-dependent evaporation study was performed with a composition of the invention (FIG. 3). Isoflurane alone was used as the control in the experiment.

## FC(F)OC(Cl)C(F)(F)F (centres unmarked) [isoflurane]
0.75 h
  original weight remaining: 86.8%
After 45 minutes of experiment
  lost due to evaporation: 13.2%
